{
  "source": "patent US20030186281A1",
  "about": "“Modified tetracycline repressor protein compositions and methods of use” (priority 2001, published 2003)",
  "test_system": "tet operator sequence",
  "test": "β-galactosidase activity of a tetracycline-regulated promoter in transformed E. coli with revTetR, in the presence and absence of anhydrotetracycline (atc)",
  "assay_type": "cell-based, Escherichia coli",
  "details": "FIG. 2",
  "protocol": "The relative activity of revTetR repressors was determined at 28° C. and 37° C. for each clone by measuring β-galactosidase activity of a tetracycline-regulated promoter in transformed Escherichia coli in the presence and absence of the tetracycline analog, anhydrotetracycline (atc). The relative β-galactosidase activity was measured in standard Miller units and is presented as the percent of maximal expression as measured in the absence of Tet repressor. […] With respect to each mutant, as well as the wild-type controls, FIG. 2 provides two horizontal bars; the upper horizontal bar represents the level of β-galactosidase activity in the absence of anhydrotetracycline (−atc) while the lower horizontal bar represents the level of β-galactosidase activity in the presence of anhydrotetracycline (+atc). […]\nThe ability of each revTetR clone to bind to its cognate tet operator sequence and regulate transcription in a prokaryotic organism, Escherichia coli, in the presence and absence of a tetracycline analog (anhydrotetracycline, atc) was determined (Table 3, FIG. 2). […]",
  "data": [
    {"smiles": "Cc1c2c(c(O)c3c(O)cccc13)C(=O)[C@]1(O)C(=O)C(C(N)=O)=C(O)[C@@H](N(C)C)[C@@H]1C2", "note": "[anhydrotetracycline, reference compound]", "values": [
      {"measurement": "repression of transcription in prokaryotic organisms by the tetracycline analog (with revTetR)", "value": "about 50 fold"}
    ]}
  ]
}
